In article PMC11087268, “A folate inhibitor exploits metabolic differences in Pseudomonas aeruginosa for narrow-spectrum targeting” (Nature Microbiology, 2024):
Several values for one entry are separate records, joined by “and”; a condition that tells them apart may be missing. Equal entries are not always repeated.

Assays:
[1] = test system: Escherichia coli lptD4213; experiment: MIC against E. coli lptD4213 in LB broth; assay type: cell-based; conditions: LPTD4213, 16 h
Description: (§1) Overnight cultures were diluted 1:150 in LB broth and added to a 96-well plate. Antibiotics were serially diluted 1:2 and added to columns of the 96-well plate and grown at 37 °C with continuous shaking. Cell growth was measured using optical density at 600 nm (OD600). MIC assays were performed in either BioTek Synergy HT or Tecan InfiniteM200 Pro microplate readers.

[2] = Pharmacokinetic analysis after single oral dose; assay type: in vivo, mouse
Description: For pharmacokinetics determination, care and handling of male CD-1 mice approximately 6–8 weeks old conformed to institutional animal care and use policies as carried out at Pharmaron.
Pharmacokinetic properties were determined after a single dose of 200 mg kg^−1 fluorofolin given orally (PO). Plasma samples were taken from three mice at times 0.083, 0.25, 0.5, 1, 2, 4, 8 and 24 h, and quantitative analysis was performed using LC–MS/MS. Half-life was determined from plasma concentration after fluorofolin levels reached pseudo-equilibrium (4 h for mouse 1 and 2, and 2 h for mouse 3). Pharmacokinetic values were estimated using a non-compartmental model generated from WinNonlin 6.1. Pharmacokinetic analysis was carried out by Pharmaron.

E. coli MG1655 = experiment: Growth competition assay, c.f.u. of E. coli MG1655; assay type: cell-based, Escherichia coli; conditions: for E.coli MG1655 CFU/mL: Panel C
Description: Cultures of each species were grown separately as well as being mixed 1:1. […] The number of colonies on Pseudomonas Selection Agar plates is reported as the c.f.u. ml^−1 of P. aeruginosa. To calculate c.f.u.s ml^−1 of E. coli MG1655, c.f.u.s ml^−1 were determined from LB agar plates and the c.f.u.s ml^−1 of P. aeruginosa were subtracted from these values.

Escherichia coli MG1655 = experiment: MIC against E. coli MG1655 in LB broth; assay type: cell-based; conditions: 16 h, 37 °C, OD600
Description: as §1

Maximum tolerated dose = conditions: female, mouse, in vivo, sc; CD-1 mice, subcutaneous
Description: For P. aeruginosa thigh infection model and maximum tolerated dose (MTD) studies, care and handling of female 5–6-week-old CD-1 conformed to Institutional Animal Care and Use Committee (IACUC) policies as carried out at the University of North Texas Health Science Center (Fort Worth, Texas) under UNTHSC IACUC-approved protocol nos. IACUC-2021-0003 and IACUC-2020-0039. Rodents were fed either base chow (Envigo) or base diet supplemented with 1.8 g kg^−1 thymidine (Sigma T9250) starting at 2 days before infection. All procedures were conducted in accordance with the UNTHSC IACUC-approved protocol. Animals were housed in rooms undergoing 10–15 air changes per hour. Air provided to the animal rooms was controlled for temperature and humidity and is fully monitored 24 h a day. Air pressure was balanced according to room use. Lighting was controlled in individual rooms by automatic timers with a standard 12 h on, 12 h off cycle.
MTD was determined by administration of compounds at increasing dosage until the maximum dose before adverse reactions were observed. Doses were increased in a stepwise manner from 1 mg kg^−1 to 5, 10, 25 and 50 mg kg^−1. […] The maximum tolerated dose of fluorofolin was determined to be 25 mg kg^−1 administered subcutaneously. MTD was evaluated by the UNTHSC.

P. aeruginosa PA14 = assay type: cell-based, Pseudomonas aeruginosa; conditions: PA14, 4× MIC plates
[3] = test system: P. aeruginosa PA14 mexA transposon mutant; experiment: microbe, parasite or virus in culture; assay type: cell-based; conditions: Pseudomonas aeruginosa
Description: as §1
(§2) P. aeruginosa PA14 transposon mutants were generated by the Ausubel Lab (https://pa14.mgh.harvard.edu/cgi-bin/pa14/home.cgi)[67]. The MICs of fluorofolin and TMP against strains with disrupted MexA, MexB and OprM were determined as above and compared to the parental strain. As transposon mutants in MexB were represented twice in this collection, the MIC was confirmed across both mutant strains.

[4] = test system: P. aeruginosa PA14 oprM transposon mutant; experiment: microbe, parasite or virus in culture; assay type: cell-based; conditions: Pseudomonas aeruginosa
Description: as §1, §2

[5] = test system: P. aeruginosa PA14 mexB transposon mutant; experiment: microbe, parasite or virus in culture; assay type: cell-based; conditions: Pseudomonas aeruginosa
Description: as §1, §2

[6] = CD-1 mice, 200 mg/kg PO, mean of three mice
[7] = male, mouse, plasma, CD-1 mice, 200 mg/kg PO, mean of three mice

In the case of `Nc1nc(N)c2c(ccc3c2ccn3Cc2ccnc(F)c2)n1` [fluorofolin], the MIC [1] was 0.02 µg/mL, the plasma concentration ([2]; 0.083 h after 200 mg kg^−1 PO, one value per mouse) was 1290 ng/mL and 1470 ng/mL and the plasma concentration ([2]; 0.25 h after 200 mg kg^−1 PO, one value per mouse) was 2880 ng/mL and 2500 ng/mL. The plasma concentration ([2]; 0.5 h after 200 mg kg^−1 PO, one value per mouse) was 3070 ng/mL and 2970 ng/mL, the plasma concentration ([2]; 1 h after 200 mg kg^−1 PO, one value per mouse) was 3980 ng/mL and 3260 ng/mL and the plasma concentration ([2]; 2 h after 200 mg kg^−1 PO, one value per mouse) was 4080 ng/mL and 3760 ng/mL. For the same molecule, the plasma concentration ([2]; 4 h after 200 mg kg^−1 PO, one value per mouse) was 4460 ng/mL and 3060 ng/mL, the plasma concentration ([2]; 8 h after 200 mg kg^−1 PO, one value per mouse) was 2580 ng/mL and 1400 ng/mL and the plasma concentration ([2]; 24 h after 200 mg kg^−1 PO, one value per mouse) was 430 ng/mL and 287 ng/mL and 1740 ng/mL. For the same molecule, the “AUC_% Extrap_obs” value [2, 6] was 23.3970%, the AUC_last/D [2, 6] was 231.6700 h*ng/mL per mg/kg and the T1/2 ([2]; CD-1 mice, 200 mg/kg PO, mean of three mice, 200 mg/kg) was 12.1050 h. For the same molecule, the concentration at 0.083 h ([2]; male, CD-1, mouse, plasma, po, 200 mg kg^−1, 0.083 h after 200 mg kg^−1 PO, one value per mouse) was 880 ng/mL, the concentration at 0.25 h ([2]; male, CD-1, mouse, plasma, po, 200 mg kg^−1, 0.25 h after 200 mg kg^−1 PO, one value per mouse) was 2220 ng/mL and the concentration at 0.5 h ([2]; male, CD-1, mouse, plasma, po, 200 mg kg^−1, 0.5 h after 200 mg kg^−1 PO, one value per mouse) was 2810 ng/mL. It also gave a concentration at 1 h ([2]; male, CD-1, mouse, plasma, po, 200 mg kg^−1, 1 h after 200 mg kg^−1 PO, one value per mouse) of 2930 ng/mL, a concentration at 2 h ([2]; male, CD-1, mouse, plasma, po, 200 mg kg^−1, 2 h after 200 mg kg^−1 PO, one value per mouse) of 3640 ng/mL and a concentration at 4 h ([2]; male, CD-1, mouse, plasma, po, 200 mg kg^−1, 4 h after 200 mg kg^−1 PO, one value per mouse) of 3460 ng/mL. For the same molecule, the concentration at 8 h ([2]; male, CD-1, mouse, plasma, po, 200 mg kg^−1, 8 h after 200 mg kg^−1 PO, one value per mouse) was 1640 ng/mL, the half-life ([2]; male, CD-1, mouse, plasma, po, 200 mg/kg, CD-1 mice, 200 mg/kg PO, mean of three mice) was 12.1 h and the AUC(0-inf) [2, 7] was 68800 ng·h/mL. For the same molecule, the AUC(0-t) [2, 7] was 46300 ng·h/mL, the Cmax [2, 7] was 3950 ng/mL and the Tmax [2, 7] was 2.67 h. For the same molecule, the MRT inf ([2]; male, mouse, plasma, CD-1 mice, 200 mg/kg PO, mean of three mice, read-out: MRT_Inf_obs) was 18.2 h, the peak concentration ([2]; mice, oral administration) was 4.0 µg/mL and the “growth in co-culture with TMI supplementation” value (E. coli MG1655; PA14 : E. coli MG1655 1:1, 50 μg ml^−1 fluorofolin, selective plating) was “but not E. coli”. The “E.coli MG1655 CFU/mL” value (E. coli MG1655; Fluorofolin) was 10 CFU/mL, the “E.coli MG1655 CFU/mL” value (E. coli MG1655; Fluorofolin + TMI) was 1050000 CFU/mL and 1500000 CFU/mL and 1350000 CFU/mL and the MIC (Escherichia coli MG1655) was 0.625 µg/mL. For the same molecule, the MTD (Maximum tolerated dose) was 25 mg/kg, the “resistance frequency compared between antibiotics” value (P. aeruginosa PA14) was “significantly lower resistance frequency than meropenem” and the MIC [3] was 1.5 µg/mL. It also gave an MIC [4] of 1.5 µg/mL and an MIC [5] of 1.5 µg/mL.
